In patent US20130116263A1, “PAK INHIBITORS FOR THE TREATMENT OF CELL PROLIFERATIVE DISORDERS” (AFRAXIS, INC., priority 2011, published 2013):
Like-named read-outs stand apart in the source and are kept apart here.

How the values were obtained:
Assay type in all cases: biochemical
PAK1 [1] = target: T1, PAK1 (Homo sapiens, UniProt Q13153); experiment: Additional in vitro PAK1 inhibition assay at ATP 10 uM and 1 mM
Method: (§1) Similar in vitro PAK1 and PAK-4 inhibition assays are conducted in compounds for the treatment of cancer, but under ATP concentrations of 10 uM and 1 mM.

PAK4 [2] = target: T2, PAK4 (Homo sapiens, UniProt O96013); experiment: Additional in vitro PAK-4 inhibition assay at ATP 10 uM and 1 mM; conditions: 10 μM ATP; read-out: PAK4 IC50 (10 μM ATP)
Method: as §1

PAK2 (PAK65) = PAK2 (PAK65) (Homo sapiens, UniProt Q13177); experiment: In vitro PAK inhibition assay (Z'-LYTE, SelectScreen), PAK2
How it was run: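 Z'-LYTE FRET readout using Ser/Thr 20 peptide (2 μM) with 0.29–6 ng PAK2 in 50 mM HEPES pH 7.5, 0.01% BRIJ-35, 10 mM MgCl2, 1 mM EGTA, 1% DMSO. Reaction and development each ran 60 min at room temperature.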

PAK3 = PAK3 (Homo sapiens, UniProt O75914); experiment: In vitro PAK inhibition assay (Z'-LYTE, SelectScreen), PAK3
How it was run: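 Z'-LYTE FRET format: PAK3 with Ser/Thr 20 peptide in 50 mM HEPES pH 7.5, 0.01% BRIJ-35, 10 mM MgCl2, 1 mM EGTA, 1% DMSO final. Kinase reaction 60 min at room temperature, then 60 min development and fluorescence read.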

PAK4 [3] = target: T2, PAK4; experiment: In vitro PAK inhibition assay (Z'-LYTE, SelectScreen), PAK4
How it was run: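 Z'-LYTE FRET assay with 0.1-0.75 ng PAK-4 and 2 μM Ser/Thr 20 peptide in 50 mM HEPES pH 7.5, 10 mM MgCl2, 1 mM EGTA, 0.01% BRIJ-35, 1% DMSO; ATP near apparent Km. 1 h kinase reaction at room temperature, then 1 h development; IC50 from 10-point 3-fold titrations fitted to a sigmoidal dose-response.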

PAK1 [4] = target: T1, PAK1; experiment: In vitro PAK inhibition assay (Z'-LYTE, SelectScreen), PAK1
How it was run: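 FRET-based Z'-LYTE readout: PAK1 phosphorylates Ser/Thr 19 peptide in 50 mM HEPES pH 7.5, 0.01% BRIJ-35, 10 mM MgCl2, 1 mM EGTA, 1% DMSO, 60 min at room temperature, followed by 60 min development.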

[5] = 10 μM ATP, read-out: PAK1 IC50 (10 μM ATP)
[6] = 1 mM ATP, read-out: PAK1 IC50 (1 mM ATP)

PAK2 (PAK65), sequence (Q13177 whole entry): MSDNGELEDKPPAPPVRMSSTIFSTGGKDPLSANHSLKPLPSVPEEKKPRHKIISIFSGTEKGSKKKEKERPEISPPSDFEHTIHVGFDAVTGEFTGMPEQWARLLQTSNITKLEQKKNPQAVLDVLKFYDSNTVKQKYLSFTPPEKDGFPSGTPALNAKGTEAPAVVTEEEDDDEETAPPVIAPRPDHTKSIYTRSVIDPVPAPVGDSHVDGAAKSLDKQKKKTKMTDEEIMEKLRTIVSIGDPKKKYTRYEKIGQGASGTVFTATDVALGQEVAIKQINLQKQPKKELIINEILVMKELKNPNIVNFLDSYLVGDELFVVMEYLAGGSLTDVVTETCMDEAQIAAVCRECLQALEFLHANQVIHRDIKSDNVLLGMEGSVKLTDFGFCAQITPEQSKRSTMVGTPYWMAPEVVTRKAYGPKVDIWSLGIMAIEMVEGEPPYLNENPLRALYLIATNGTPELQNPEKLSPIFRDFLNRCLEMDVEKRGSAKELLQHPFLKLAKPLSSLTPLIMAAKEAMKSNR
T2 sequence (O96013 whole entry): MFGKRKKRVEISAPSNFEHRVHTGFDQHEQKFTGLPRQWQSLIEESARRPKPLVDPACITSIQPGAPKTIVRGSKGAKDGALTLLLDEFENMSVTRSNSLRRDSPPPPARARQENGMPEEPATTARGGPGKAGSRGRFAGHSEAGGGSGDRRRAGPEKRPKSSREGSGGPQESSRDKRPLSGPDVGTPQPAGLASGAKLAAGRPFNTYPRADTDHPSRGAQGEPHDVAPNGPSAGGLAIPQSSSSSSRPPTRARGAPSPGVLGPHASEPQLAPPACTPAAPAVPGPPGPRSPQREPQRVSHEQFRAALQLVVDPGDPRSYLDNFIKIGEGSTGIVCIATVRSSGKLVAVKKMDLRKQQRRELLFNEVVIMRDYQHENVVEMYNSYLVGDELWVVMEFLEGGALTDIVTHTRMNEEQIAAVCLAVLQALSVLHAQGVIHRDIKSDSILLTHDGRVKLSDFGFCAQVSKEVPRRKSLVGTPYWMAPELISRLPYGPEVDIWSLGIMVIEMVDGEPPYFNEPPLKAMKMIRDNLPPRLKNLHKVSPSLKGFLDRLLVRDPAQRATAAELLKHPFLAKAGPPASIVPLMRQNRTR
PAK3, sequence (O75914 1-544 isoform O75914-2): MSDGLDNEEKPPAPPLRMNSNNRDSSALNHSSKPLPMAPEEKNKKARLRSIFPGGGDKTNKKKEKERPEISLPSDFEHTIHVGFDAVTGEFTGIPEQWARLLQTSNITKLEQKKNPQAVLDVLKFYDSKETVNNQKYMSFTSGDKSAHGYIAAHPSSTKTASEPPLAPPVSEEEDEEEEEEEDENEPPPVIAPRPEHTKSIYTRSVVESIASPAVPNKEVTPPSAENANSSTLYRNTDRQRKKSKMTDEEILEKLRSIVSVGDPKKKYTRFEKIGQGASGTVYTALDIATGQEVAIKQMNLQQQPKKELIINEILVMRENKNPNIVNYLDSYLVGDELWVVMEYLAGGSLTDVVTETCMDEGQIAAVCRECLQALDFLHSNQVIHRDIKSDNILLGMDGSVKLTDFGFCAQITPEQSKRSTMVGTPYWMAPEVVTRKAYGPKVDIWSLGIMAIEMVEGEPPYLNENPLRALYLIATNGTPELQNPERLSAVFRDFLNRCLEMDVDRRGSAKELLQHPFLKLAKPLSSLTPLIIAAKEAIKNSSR
T1 sequence (Q13153 whole entry): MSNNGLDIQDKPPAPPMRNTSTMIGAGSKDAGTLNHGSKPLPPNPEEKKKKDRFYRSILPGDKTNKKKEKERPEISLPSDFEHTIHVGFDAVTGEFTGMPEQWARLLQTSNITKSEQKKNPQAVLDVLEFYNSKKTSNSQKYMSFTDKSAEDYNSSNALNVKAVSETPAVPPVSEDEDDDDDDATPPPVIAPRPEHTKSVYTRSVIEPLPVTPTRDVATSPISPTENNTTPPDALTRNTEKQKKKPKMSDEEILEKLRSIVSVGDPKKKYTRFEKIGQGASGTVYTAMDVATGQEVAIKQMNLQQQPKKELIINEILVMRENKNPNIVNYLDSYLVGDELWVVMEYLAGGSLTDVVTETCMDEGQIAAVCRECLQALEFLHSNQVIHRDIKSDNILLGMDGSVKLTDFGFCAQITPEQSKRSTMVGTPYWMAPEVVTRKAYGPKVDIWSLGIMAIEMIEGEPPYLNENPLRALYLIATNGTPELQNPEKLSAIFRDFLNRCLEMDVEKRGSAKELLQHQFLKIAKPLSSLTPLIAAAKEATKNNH

| Compound | IC50 (PAK1 [1]; [5]) [µM] | IC50 (PAK1 [1]; [6]) [µM] | IC50 (PAK4 [2]) [µM] | also measured |
| --- | --- | --- | --- | --- |
| CCn1c(=O)c(-c2ccc(-c3noc(C)n3)cc2Cl)cc2cnc(NCc3ccccn3)nc21 | 0.5 to 5 | ≥ 5 | ≥ 5 |  |
| Cc1nc(-c2ccc(-c3cc4cnc(NC5CCOCC5)nc4n(Cc4ccccc4)c3=O)c(Cl)c2)no1 | 0.5 to 5 | ≥ 5 | ≥ 5 |  |
| Cc1nc(-c2ccc(-c3cc4cnc(NC5CCOCC5)nc4n(CC(=O)N4CCC(CN)CC4)c3=O)c(Cl)c2)no1 [drawing 352] | < 0.05 | ≥ 5 | ≥ 5 |  |
| CCn1c(=O)c(-c2ccc(-c3noc(C)n3)cc2Cl)cc2cnc(NCCCN(C)C)nc21 | 0.5 to 5 | ≥ 5 | ≥ 5 |  |
| CCn1c(=O)c(-c2ccc(-c3noc(C)n3)cc2Cl)cc2cnc(NC3(C)CC3)nc21 | 0.5 to 5 | ≥ 5 | ≥ 5 |  |
| CCn1c(=O)c(-c2ccc(-c3noc(C)n3)cc2Cl)cc2cnc(NCC3CCOC3)nc21 (stereo not shown) | 0.5 to 5 | ≥ 5 | ≥ 5 |  |
| Cc1nc(-c2ccc(-c3cc4cnc(NC5CCOCC5)nc4n(C4CC4)c3=O)c(Cl)c2)no1 | 0.05 to 0.5 | ≥ 5 | ≥ 5 |  |
| Cc1nc(-c2ccc(-c3cc4cnc(NC5CCOCC5)nc4n(CC(=O)N4CCCC(N)C4)c3=O)c(Cl)c2)no1 (stereo not shown) | 0.05 to 0.5 | ≥ 5 | ≥ 5 |  |
| CCn1c(=O)c(-c2ccc(-c3noc(C)n3)cc2Cl)cc2cnc(NC3CCCC3)nc21 | 0.5 to 5 | ≥ 5 | 0.5 to 5 |  |
| Cc1nc(-c2ccc(-c3cc4cnc(NC5CCOCC5)nc4n(Cc4ccc5c(c4)CNC5)c3=O)c(Cl)c2)no1 | 0.05 to 0.5 | ≥ 5 | ≥ 5 |  |
| Cc1nc(-c2ccc(-c3cc4cnc(NC5CCOCC5)nc4n(C4CCOCC4)c3=O)c(Cl)c2)no1 | 0.05 to 0.5 | ≥ 5 | ≥ 5 |  |
| Cc1nc(-c2ccc(-c3cc4cnc(NC5CC5)nc4n(Cc4cccc(CN(C)C)c4)c3=O)c(Cl)c2)no1 | 0.05 to 0.5 | 0.5 to 5 | ≥ 5 |  |
| Cc1nc(-c2ccc(-c3cc4cnc(NC5CCOCC5)nc4n(CC(=O)NC4CCCNC4)c3=O)c(Cl)c2)no1 (stereo not shown) | 0.05 to 0.5 | ≥ 5 | ≥ 5 |  |
| CCn1c(=O)c(-c2ccc(-c3noc(C)n3)cc2Cl)cc2cnc(NC3COC4(CCCC4)C3)nc21 (stereo not shown) | 0.5 to 5 | ≥ 5 | 0.5 to 5 |  |
| CCn1c(=O)c(-c2ccc(-c3noc(C)n3)cc2Cl)cc2cnc(NCCC3CCN(C)CC3)nc21 [drawing 361] | 0.05 to 0.5 | ≥ 5 | ≥ 5 |  |
| Cc1nc(-c2ccc(-c3cc4cnc(NC5CCOCC5)nc4n(Cc4cccc(OCCN)c4)c3=O)c(Cl)c2)no1 [drawing 344] | < 0.05 | 0.5 to 5 | ≥ 5 |  |
| CCn1c(=O)c(-c2ccc(-c3noc(C)n3)cc2Cl)cc2cnc(N[C@H]3COC[C@H]3O)nc21 | 0.5 to 5 | ≥ 5 | ≥ 5 |  |
| CCn1c(=O)c(-c2ccc(-c3nccnc3C)cc2Cl)cc2cnc(NC3CCN(C)CC3)nc21 [Example 5] |  |  |  | IC50 (PAK2 (PAK65); read-out: PAK2 IC50): 0.5 to 5 µM; IC50 (PAK3; read-out: PAK3 IC50): 500 to 5000 nM; IC50 (PAK4 [3]): > 5 µM; IC50 (PAK1 [4]; read-out: PAK1 IC50): 0.5 to 5 µM |
| CCn1c(=O)c(-c2ccc(-c3nccnc3C)cc2Cl)cc2cnc(NCCC3CCNCC3)nc21 [Example 136] |  |  |  | IC50 (PAK2 (PAK65); read-out: PAK2 IC50): < 0.05 µM; IC50 (PAK3; read-out: PAK3 IC50): 50 to 500 nM; IC50 (PAK4 [3]): > 5 µM; IC50 (PAK1 [4]; read-out: PAK1 IC50): < 0.05 µM |
| Cc1cncc(-c2ccc(-c3cc4cnc(N[C@@H]5CCOC5)nc4n([C@H]4CC[C@H](N)CC4)c3=O)c(Cl)c2)n1 [Example 109] |  |  |  | IC50 (PAK2 (PAK65); read-out: PAK2 IC50): < 0.05 µM; IC50 (PAK3; read-out: PAK3 IC50): 50 to 500 nM; IC50 (PAK4 [3]): > 5 µM; IC50 (PAK1 [4]; read-out: PAK1 IC50): < 0.05 µM |
| Cc1nc(-c2ccc(-c3cc4cnc(NC5CCOCC5)nc4n(Cc4ccccc4C(F)(F)F)c3=O)c(Cl)c2)no1 [Example 24] |  |  |  | IC50 (PAK2 (PAK65)): 0.05 to 0.5 µM; IC50 (PAK3; PAK3 IC50 (nM)): 50 to 500 nM; IC50 (PAK4 [3]): > 5 µM; IC50 (PAK1 [4]): 0.05 to 0.5 µM |
